These results are taken from US20260055102A1 (Redx Pharma Limited, priority 2022, published 2026).

Assay [1] concerns the target Recombinant human DDR2 (aa427-855 containing a GST tag) (Homo sapiens (Human), UniProt Q16832). Briefly: LanthaScreen Eu Kinase Binding Assay DDR2. The settings on record: Kinase Tracer 178 10 nM, at least two independent replicates; for IC50: read-out: DDR2 pIC50 (converted). The gist of the method:
(§1)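 DDR1 (2.5 nM) or DDR2 (1.75 nM) was preincubated with compound 30 min at RT in 50 mM HEPES pH 7.3, 10 mM MgCl2, 1 mM EGTA, 0.01% Tween. Eu-anti-GST and Tracer 178 were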
On the technique in general: In TR-FRET formats the signal depends on donor and acceptor labels being close together.

For assay [2], the target named is Recombinant human DDR1 (aa440-876 containing a GST tag) (Homo sapiens (Human), UniProt Q08345). As to the kind of experiment: LanthaScreen Eu Kinase Binding Assay DDR1. The following applies: Kinase Tracer 178 5 nM, at least two independent replicates; for IC50: read-out: DDR1 pIC50 (converted). Summed up: as §1
Recombinant human DDR1 (aa440-876 containing a GST tag), sequence (Q08345 other isoform, or with tags, fused parts or gaps): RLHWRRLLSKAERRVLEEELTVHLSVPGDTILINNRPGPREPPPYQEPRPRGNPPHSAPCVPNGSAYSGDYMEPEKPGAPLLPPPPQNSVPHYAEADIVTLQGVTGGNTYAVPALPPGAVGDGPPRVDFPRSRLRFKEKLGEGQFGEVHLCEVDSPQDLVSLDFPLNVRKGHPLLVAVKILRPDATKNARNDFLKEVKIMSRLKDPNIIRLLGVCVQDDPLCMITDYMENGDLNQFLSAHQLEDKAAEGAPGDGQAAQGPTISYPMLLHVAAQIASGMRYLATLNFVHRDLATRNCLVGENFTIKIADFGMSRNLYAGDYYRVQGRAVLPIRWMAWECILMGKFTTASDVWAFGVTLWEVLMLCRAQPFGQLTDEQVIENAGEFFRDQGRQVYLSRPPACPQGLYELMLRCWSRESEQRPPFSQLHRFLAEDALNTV

Recombinant human DDR2 (aa427-855 containing a GST tag), sequence (Q16832 427-855): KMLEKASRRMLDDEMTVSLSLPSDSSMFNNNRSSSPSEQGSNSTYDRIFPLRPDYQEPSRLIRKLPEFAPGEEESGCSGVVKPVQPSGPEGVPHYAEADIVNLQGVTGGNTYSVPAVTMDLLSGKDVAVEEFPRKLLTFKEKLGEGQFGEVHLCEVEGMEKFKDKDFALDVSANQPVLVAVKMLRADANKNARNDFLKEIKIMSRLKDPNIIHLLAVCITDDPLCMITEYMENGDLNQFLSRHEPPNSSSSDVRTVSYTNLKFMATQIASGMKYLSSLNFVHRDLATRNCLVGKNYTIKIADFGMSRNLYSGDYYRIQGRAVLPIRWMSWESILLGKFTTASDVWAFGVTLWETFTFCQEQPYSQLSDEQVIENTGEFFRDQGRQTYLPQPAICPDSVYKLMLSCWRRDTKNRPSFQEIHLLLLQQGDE

In the case of `Cc1nc(-c2cncc3[nH]ncc23)ccc1-n1c(=O)n(CC(=O)NCC(F)(F)F)c2cccc(C)c21` [Example 94, 2-[4-methyl-3-[2-methyl-6-(1H-pyrazolo[3,4-c]pyridin-4-yl)-3-pyridyl]-2-oxo-benzimidazol-1-yl]-N-(2,2,2-trifluoroethyl)acetamide], in assay [1], the IC50 was 10 to 100 nM. The “DDR1 pIC50” value in assay [2] is “A (pIC50>8)”.
For `Cc1nc(-c2cncc3c2cnn3C)ccc1-n1c(=O)n(CC(=O)NCC(F)(F)F)c2cccc(C)c21` [Example 95, 2-[4-methyl-3-[2-methyl-6-(1-methylpyrazolo[3,4-c]pyridin-4-yl)-3-pyridyl]-2-oxo-benzimidazol-1-yl]-N-(2,2,2-trifluoroethyl)acetamide], in that order: 100 to 1000 nM and “A (pIC50>8)”.
In the case of `Cc1nc(-c2cncc3c2cnn3C)cnc1-n1c(=O)n(CC(=O)NCC(F)(F)F)c2cccc(C)c21` [Example 96, 2-[4-methyl-3-[3-methyl-5-(1-methylpyrazolo[3,4-c]pyridin-4-yl)pyrazin-2-yl]-2-oxo-benzimidazol-1-yl]-N-(2,2,2-trifluoroethyl)acetamide], the IC50 in assay [1] was 100 to 1000 nM. For the same molecule, in assay [2], the “DDR1 pIC50” value is “A (pIC50>8)”.
For the molecule `Cc1cc(-n2c(=O)n(CC(=O)NCC(F)(F)F)c3cccc(C)c32)cnc1-c1cncc2c1cnn2C` [Example 97, 2-[4-methyl-3-[5-methyl-6-(1-methylpyrazolo[3,4-c]pyridin-4-yl)-3-pyridyl]-2-oxo-benzimidazol-1-yl]-N-(2,2,2-trifluoroethyl)acetamide], the “DDR2 pIC50” value in assay [1] is given as “D (pIC50≤6)”. For the same molecule, the “DDR1 pIC50” value in assay [2] is recorded as “D (pIC50≤6)”.
Take `Cc1cccc2c1n(-c1ncc(-c3cncc4[nH]ncc34)cn1)c(=O)n2CC(=O)N[C@H](C)C(F)(F)F` [Example 98, 2-[4-methyl-2-oxo-3-[5-(1H-pyrazolo[3,4-c]pyridin-4-yl)pyrimidin-2-yl]benzimidazol-1-yl]-N-[(1R)-2,2,2-trifluoro-1-methyl-ethyl]acetamide]: the “DDR2 pIC50” value in assay [1] is “D (pIC50≤6)”. Also, the IC50 in assay [2] is 100 to 1000 nM.
Regarding `Cc1cc(-n2c(=O)n(CC(=O)NCC(F)(F)F)c3cccc(C)c32)cnc1-c1cncc2[nH]ncc12` [Example 99, 2-[4-methyl-3-[5-methyl-6-(1H-pyrazolo[3,4-c]pyridin-4-yl)-3-pyridyl]-2-oxo-benzimidazol-1-yl]-N-(2,2,2-trifluoroethyl)acetamide], the “DDR2 pIC50” value in assay [1] is “D (pIC50≤6)”. For the same molecule, the IC50 in assay [2] was 100 to 1000 nM.
Regarding `Cc1nc(-n2c(=O)n(CC(=O)N[C@@H](C)C(F)(F)F)c3cccc(C)c32)cnc1-c1cncc2c1cnn2C` [Example 101, 2-[4-methyl-3-[6-methyl-5-(1-methylpyrazolo[3,4-c]pyridin-4-yl)pyrazin-2-yl]-2-oxo-benzimidazol-1-yl]-N-[(1S)-2,2,2-trifluoro-1-methyl-ethyl]acetamide], in assay [1], the “DDR2 pIC50” value is listed as “D (pIC50≤6)”. The IC50 in assay [2] was 100 to 1000 nM.
Turning to `Cc1cc(-n2c(=O)n(CC(=O)NCC(F)(F)F)c3cccc(C)c32)cnc1-c1cncc2[nH]nc(C)c12` [Example 102, 2-[4-methyl-3-[5-methyl-6-(3-methyl-1H-pyrazolo[3,4-c]pyridin-4-yl)-3-pyridyl]-2-oxo-benzimidazol-1-yl]-N-(2,2,2-trifluoroethyl)acetamide], the “DDR2 pIC50” value in assay [1] was “D (pIC50≤6)”. For the same molecule, the IC50 in assay [2] is 100 to 1000 nM.
On to `Cc1nc(-c2cncc3[nH]nc(C)c23)ccc1-n1c(=O)n(CC(=O)NCC(F)(F)F)c2cccc(C)c21` [Example 103, 2-[4-methyl-3-[2-methyl-6-(3-methyl-1H-pyrazolo[3,4-c]pyridin-4-yl)-3-pyridyl]-2-oxo-benzimidazol-1-yl]-N-(2,2,2-trifluoroethyl)acetamide], for which the “DDR2 pIC50” value in assay [1] is “D (pIC50≤6)”. In assay [2], the IC50 was 10 to 100 nM.
Regarding `Cc1nc(-c2cncc3[nH]nc(C)c23)cnc1-n1c(=O)n(CC(=O)NCC(F)(F)F)c2cccc(C)c21` [Example 104, 2-[4-methyl-3-[3-methyl-5-(3-methyl-1H-pyrazolo[3,4-c]pyridin-4-yl)pyrazin-2-yl]-2-oxo-benzimidazol-1-yl]-N-(2,2,2-trifluoroethyl)acetamide], in assay [1], the “DDR2 pIC50” value is recorded as “D (pIC50≤6)”. Moreover, in assay [2], the “DDR1 pIC50” value is “D (pIC50≤6)”.
Take `Cc1nc(-n2c(=O)n(CC(=O)NCC(F)(F)F)c3cccc(C)c32)cnc1-c1cncc2[nH]nc(C)c12` [Example 105, 2-[4-methyl-3-[6-methyl-5-(3-methyl-1H-pyrazolo[3,4-c]pyridin-4-yl)pyrazin-2-yl]-2-oxo-benzimidazol-1-yl]-N-(2,2,2-trifluoroethyl)acetamide]: the results for the IC50 in assay [1] and in assay [2] were 100 to 1000 nM and 10 to 100 nM, respectively.
Turning to `Cc1cc(-c2cncc3c2cnn3C)ncc1-n1c(=O)n(CC(=O)N[C@@H](C)C(F)(F)F)c2cccc(C)c21` [Example 106], the figures for the IC50 in assay [1] and in assay [2] were 100 to 1000 nM and 10 to 100 nM, respectively.
`Cc1cc(-c2cncc3c2cnn3C)ncc1-n1c(=O)n(CC(=O)N[C@H](C)C(F)(F)F)c2cccc(C)c21` [Example 107]: the “DDR2 pIC50” value in assay [1] was “D (pIC50≤6)”. Moreover, the IC50 in assay [2] was 100 to 1000 nM.
With `Cc1cc(-c2cncc3c2c(C)nn3C)ncc1-n1c(=O)n(CC(=O)NCC(F)(F)F)c2cccc(C)c21` [Example 108], the “DDR2 pIC50” value in assay [1] is recorded as “D (pIC50≤6)”. Further, in assay [2], the IC50 was 100 to 1000 nM.
`Cc1ncc2c(cnn2C)c1-c1ccc(-n2c(=O)n(CC(=O)NCC(F)(F)F)c3cccc(C)c32)cn1` [Example 109]: in assay [1], the “DDR2 pIC50” value is on record as “D (pIC50≤6)”. Besides, in assay [2], the “DDR1 pIC50” value is “D (pIC50≤6)”.
In the case of `Cc1cc(-c2cncc3c2cnn3C)cnc1-n1c(=O)n(CC(=O)NCC(F)(F)F)c2cccc(C)c21` [Example 110], the “DDR2 pIC50” value in assay [1] is “D (pIC50≤6)”. Moreover, the IC50 in assay [2] is 10 to 100 nM.
For the molecule `Cc1cc(-c2cncc3c2cnn3C)cnc1-n1c(=O)n(CC(=O)N[C@H](C)C(F)(F)F)c2cccc(C)c21` [Example 111], in assay [1], the “DDR2 pIC50” value was “D (pIC50≤6)”. In assay [2], the IC50 was 100 to 1000 nM.
Consider `Cc1nc(-c2cncc3c2cnn3C)ccc1-n1c(=O)n(CC(=O)N[C@H](C)C(F)(F)F)c2cccc(C)c21` [Example 112], for which the IC50 in assay [1] was 100 to 1000 nM; in assay [2] it was 10 to 100 nM.
Turning to `Cc1nc(-c2cncc3c2cnn3C)ccc1-n1c(=O)n(CC(=O)N[C@@H](C)C(F)(F)F)c2cccc(C)c21` [Example 113], the IC50 in assay [1] was 100 to 1000 nM; in assay [2], 10 to 100 nM.
On to `Cc1nc(-c2cncc3c2cnn3C)cnc1-n1c(=O)n(CC(=O)N[C@@H](C)C(F)(F)F)c2cccc(C)c21` [Example 115], for which the IC50 in assay [1] and in assay [2] was 10 to 100 nM each time.
